Results taken from PMC12514245, “Impaired migration and lung invasion of human melanoma by a novel small molecule targeting the transmembrane domain of death receptor p75^NTR” (EMBO Molecular Medicine, 2025).
Several values for one entry are separate records, joined by “and”; a condition that tells them apart may be missing. Identical values can stand only once. Entries after “also recorded” stand apart in the source; their conditions may differ.

Tests used:
p75^NTR TMD P253G = biological target: T1, p75^NTR TMD P253G (Homo sapiens, UniProt P08138, P253G); assay: AraTM assay, P253G mutant p75NTR TMD; assay type: cell-based; settings: for GFP/OD630, Mean / GFP/OD630, individual replicates: P253G
T1 construct: Comparison of wild-type (WT) p75^NTR TMD and I252A, P253G and V254A mutants in the AraTM assay; expressed in transfected cells; host or cells: E. coli AS19 (LPS-negative)

p75^NTR TMD V254A = biological target: T2, p75^NTR TMD V254A (Homo sapiens, UniProt P08138, V254A); assay: AraTM assay, V254A mutant p75NTR TMD; assay type: cell-based; settings: for GFP/OD630, Mean / GFP/OD630, individual replicates: V254A;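 for GFP/OD630, Mean: normalised to the no-drug GFP/OD630 signal set at 100%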;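 for GFP/OD630, individual replicates: normalised to the no-drug GFP/OD630 signal set at 100%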
T2 construct: Comparison of wild-type (WT) p75^NTR TMD and I252A, P253G and V254A mutants in the AraTM assay; expressed in transfected cells; host or cells: E. coli AS19 (LPS-negative)
T2 sequence (P08138 250-275 V254A): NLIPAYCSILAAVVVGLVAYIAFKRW

A875 NT cells = assay: Boyden chamber chemotaxis/invasion assay, A875 NT; assay type: cell-based, human; settings: for Fold change - invading cells, Mean / Fold change - invading cells, individual replicates: 1μM
Procedure: For Boyden chamber assay, Corning® BioCoat™ Matrigel® Invasion Chambers 8.0 µm PET Membrane were used (cat. no. 354480). A875 NT or WM115 cells were serum-starved for 16 h and then seeded at 60,000 cells per well in serum-free media under different conditions, including DMSO (vehicle) or small molecules Div17E5 or Np75-4A22 at different concentrations to the top chamber of the Matrigel-coated trans-well chamber. The pan-caspase inhibitor Q_VD_poH (at 5 µM) was also introduced in the top chamber in some experiments. Two different chemoattractants, NGF (at 50 ng/ml or 100 ng/ml as indicated) or 10% FBS were added to the bottom chamber. Assays were carried out for 8 h after which filters were fixed in 4% PFA and stained with DAPI. Cells that had remained on the top of the filter were gently scrapped away with a cotton tip. The filter lower side was imaged on an inverted fluorescence microscope and counted using ImageJ software (NIH).

p75^NTR TMD = biological target: T3, p75^NTR TMD (Homo sapiens, UniProt P08138); assay: AraTM assay, wild-type p75NTR TMD (GFP/OD630); assay type: cell-based
T3 sequence (P08138 250-275 limits assumed): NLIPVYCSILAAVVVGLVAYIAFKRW

p75^NTR TMD I252A = biological target: T4, p75^NTR TMD I252A (Homo sapiens, UniProt P08138, I252A); assay: AraTM assay, I252A mutant p75NTR TMD; assay type: cell-based; settings: for GFP/OD630, Mean / GFP/OD630, individual replicates: I252A
T4 construct: Comparison of wild-type (WT) p75^NTR TMD and I252A, P253G and V254A mutants in the AraTM assay; expressed in transfected cells; host or cells: E. coli AS19 (LPS-negative)
T4 sequence (P08138 250-275 I252A): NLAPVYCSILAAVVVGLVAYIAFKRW

A875 melanoma cells (NT) = assay: Cleaved PARP western blot (apoptosis), A875 NT; assay type: cell-based, human
Procedure: One of the main biological readouts of p75^NTR activity in response to neurotrophins is the induction of caspase-mediated apoptotic cell death (Underwood and Coulson, [2008]; Friedman, [2010]; Ibáñez and Simi, [2012]).
COS7, A875 and WM115 cell lines were cultured under standard conditions in DMEM supplemented with 10% fetal calf serum, 100 units/ml penicillin, […] streptomycin, and 2.5 mM glutamine. All cells were authenticated and tested for mycoplasma contamination. A875-NT (control) and A875 shp75 (knockdown) cell lines were described previously (Goh et al, [2018]).

[1] = wt, compound 10 μM, Figure 5C-E
[2] = wt, compound 20 μM, Figure 5C-E
[3] = wt, compound 30 μM, Figure 5C-E
[4] = wt, compound 40 μM, Figure 5C-E

T1 sequence (P08138 251-272 P253G limits assumed): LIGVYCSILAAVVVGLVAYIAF

## Cc1cccc(-c2cncc(Nc3ccc(Br)c(Cl)c3Cl)n2)c1C [Np75-4A22]
p75^NTR TMD P253G
  effect of Pro253 mutation on compound activity in AraTM assay: unaffected
p75^NTR TMD P253G; compound 5 μM
  GFP/OD630, Mean: 0.71
  GFP/OD630, individual replicates: 0.58 and 0.64 and 0.9
p75^NTR TMD P253G; compound 10 μM
  GFP/OD630, Mean: 0.74
  GFP/OD630, individual replicates: 0.6 and 0.87 and 0.74
p75^NTR TMD P253G; compound 20 μM
  GFP/OD630, Mean: 0.58
  GFP/OD630, individual replicates: 0.43 and 0.66 (2×)
p75^NTR TMD P253G; compound 30 μM
  GFP/OD630, Mean: 0.52
  GFP/OD630, individual replicates: 0.72 and 0.32 and 0.53
p75^NTR TMD P253G; compound 40 μM
  GFP/OD630, Mean: 0.39
  GFP/OD630, individual replicates: 0.36 (2×) and 0.44
p75^NTR TMD V254A
  effect of Val254 mutation on compound activity in AraTM assay: unaffected
p75^NTR TMD V254A; compound 5 μM
  GFP/OD630, Mean: 0.83
  GFP/OD630, individual replicates: 0.98 and 0.74 and 0.77
p75^NTR TMD V254A; compound 10 μM
  GFP/OD630, Mean: 0.64
  GFP/OD630, individual replicates: 0.63 (2×) and 0.65
p75^NTR TMD V254A; compound 20 μM
  GFP/OD630, Mean: 0.61
  GFP/OD630, individual replicates: 0.46 and 0.62 and 0.74
p75^NTR TMD V254A; compound 30 μM
  GFP/OD630, Mean: 0.47
  GFP/OD630, individual replicates: 0.41 and 0.51 and 0.50
p75^NTR TMD V254A; compound 40 μM
  GFP/OD630, Mean: 0.54
  GFP/OD630, individual replicates: 0.57 and 0.51 and 0.53
A875 NT cells; 0.5μM, NGF (50 ng/ml)
  INVADING CELLS Average: 217.00
  INVADING CELLS Fold Average: 1.60 Fold
  INVADING CELLS Fold change: 1.65 Fold and 1.68 Fold and 1.46 Fold
  INVADING CELLS count: 224 and 229 and 198
A875 NT cells; 0.5μM, No NGF
  INVADING CELLS Average: 115.33
  INVADING CELLS Fold Average: 0.85 Fold
  INVADING CELLS Fold change: 0.82 Fold and 0.92 Fold and 0.80 Fold
  INVADING CELLS count: 112 and 125 and 109
A875 NT cells; 0.75μM, NGF (50 ng/ml)
  INVADING CELLS Average: 161.00
  INVADING CELLS Fold Average: 1.18 Fold
  INVADING CELLS Fold change: 1.31 Fold and 1.11 Fold and 1.13 Fold
  INVADING CELLS count: 178 and 151 and 154
A875 NT cells; 0.75μM, No NGF
  INVADING CELLS Average: 131.00
  INVADING CELLS Fold Average: 0.96 Fold
  INVADING CELLS Fold change: 0.99 Fold and 1.01 Fold and 0.90 Fold
  INVADING CELLS count: 134 and 137 and 122
A875 NT cells; NGF
  Fold change - invading cells, Mean: 1.46
  Fold change - invading cells, individual replicates: 1.24 and 1.52 and 1.63
A875 NT cells; no NGF
  Fold change - invading cells, Mean: 0.96
  Fold change - invading cells, individual replicates: 1.22 and 0.88 and 0.78
A875 NT cells; 1 μM, NGF 50 ng/ml
  NGF activity in Boyden chamber assay of cell chemotaxis: blocked all NGF activity
A875 NT cells; submicromolar concentrations, NGF 50 ng/ml
  NGF-induced A875 chemotaxis: significantly reducing
p75^NTR TMD
  IC50 in the AraTM assay, compared with Div17E5: improved IC50 compared to Div17E5
p75^NTR TMD; compound 2 μM, Figure 5B
  GFP/OD630, Mean: 0.98
  GFP/OD630, individual replicates: 0.97 and 0.96 and 1.01
p75^NTR TMD; compound 4 μM, Figure 5B
  GFP/OD630, Mean: 0.58
  GFP/OD630, individual replicates: 0.59 and 0.58 and 0.56
p75^NTR TMD; compound 6 μM, Figure 5B
  GFP/OD630, Mean: 0.46
  GFP/OD630, individual replicates: 0.46 and 0.49 and 0.42
p75^NTR TMD; compound 8 μM, Figure 5B
  GFP/OD630, Mean: 0.41
  GFP/OD630, individual replicates: 0.41 and 0.43 and 0.37
p75^NTR TMD; compound 10 μM, Figure 5B
  GFP/OD630, Mean: 0.39
  GFP/OD630, individual replicates: 0.36 and 0.38 and 0.43
p75^NTR TMD; structure-activity comparison
  activity in the AraTM assay: better performance at low micromolar concentrations; also recorded: best compounds; also recorded: best compound in the 4A series
p75^NTR TMD; wt, compound 5 μM, Figure 5C-E
  GFP/OD630, Mean: 0.78
  GFP/OD630, individual replicates: 0.78 and 0.81 and 0.74
p75^NTR TMD; [1]
  GFP/OD630, Mean: 0.57
  GFP/OD630, individual replicates: 0.53 and 0.48 and 0.68
p75^NTR TMD; [2]
  GFP/OD630, Mean: 0.49
  GFP/OD630, individual replicates: 0.48 and 0.44 and 0.56
p75^NTR TMD; [3]
  GFP/OD630, Mean: 0.34
  GFP/OD630, individual replicates: 0.46 and 0.29 and 0.27
p75^NTR TMD; [4]
  GFP/OD630, Mean: 0.32
  GFP/OD630, individual replicates: 0.31 and 0.34 and 0.30
p75^NTR TMD I252A
  effect of Ile252 mutation on compound activity in AraTM assay: affected
p75^NTR TMD I252A; compound 5 μM
  GFP/OD630, Mean: 0.99
  GFP/OD630, individual replicates: 0.93 and 1.08 and 0.97
p75^NTR TMD I252A; compound 10 μM
  GFP/OD630, Mean: 0.85
  GFP/OD630, individual replicates: 0.76 and 0.91 and 0.89
p75^NTR TMD I252A; compound 20 μM
  GFP/OD630, Mean: 0.84
  GFP/OD630, individual replicates: 1.01 and 0.83 and 0.69
p75^NTR TMD I252A; compound 30 μM
  GFP/OD630, Mean: 0.73
  GFP/OD630, individual replicates: 0.91 and 0.67 and 0.61
p75^NTR TMD I252A; compound 40 μM
  GFP/OD630, Mean: 0.72
  GFP/OD630, individual replicates: 0.77 and 0.62 and 0.76
A875 melanoma cells (NT); 0.5uM
  Cleaved PARP normalized to DMSO, individual replicates: 5.004 and 2.098 and 0.920
  Cleaved PARP/actin, individual replicates: 0.036 and 0.018 and 0.00739
A875 melanoma cells (NT); 0.5μM
  Cleaved PARP normalized to DMSO, Average: 2.674
A875 melanoma cells (NT); 1uM
  Cleaved PARP normalized to DMSO, individual replicates: 1.063 and 1.446 and 0.643
  Cleaved PARP/actin, individual replicates: 0.008 and 0.012 and 0.005
A875 melanoma cells (NT); 1μM
  Cleaved PARP normalized to DMSO, Average: 1.051
A875 melanoma cells (NT); 2uM
  Cleaved PARP normalized to DMSO, individual replicates: 0.550 and 3.611 and 2.270
  Cleaved PARP/actin, individual replicates: 0.004 and 0.031 and 0.018
A875 melanoma cells (NT); 2μM
  Cleaved PARP normalized to DMSO, Average: 2.144
A875 melanoma cells (NT); 5uM
  Cleaved PARP normalized to DMSO, individual replicates: 1.726 and 2.128 and 2.224
  Cleaved PARP/actin, individual replicates: 0.013 and 0.018
A875 melanoma cells (NT); 5μM
  Cleaved PARP normalized to DMSO, Average: 2.026
A875 melanoma cells (NT); submicromolar and low micromolar range (0.5 to 5 µM)
  apoptosis (PARP cleavage): did not induce apoptosis
